Measured values published in ChEMBL document CHEMBL1201862, “PubChem BioAssay data set” (2004).
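Protocol summary: plate cells (96-well), add compound at 5 concentrations, incubate 48 h, interpolate endpoints linearly. GI50 = concentration required for 50% inhibition of growth.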 The source made the active and inactive calls. No stated cut-off is given here; in the data, active = GI50 up to about 1.1 µM and inactive = higher.

What was measured:
Assay in all cases: NCI tumour cell line growth inhibition, 48 h
DMS-114 = tested on: DMS-114
KM-20L2 = tested on: KM-20L2
RXF 631 = tested on: RXF 631
DLD-1 = tested on: DLD-1
DMS-273 = tested on: DMS-273
XF498 = tested on: XF498
LXFL 529 = tested on: LXFL 529
M19-MEL = tested on: M19-MEL
HOP-18 = tested on: HOP-18

Row | Compound | GI50 (DMS-114) | GI50 (KM-20L2) | GI50 (RXF 631) | GI50 (DLD-1) | GI50 (DMS-273) | GI50 (XF498) | GI50 (LXFL 529) | GI50 (M19-MEL) | GI50 (HOP-18)
1 | COc1ccc(/C(=N/Nc2ccccc2)C(c2ccc(OC)cc2)C2OC(=O)c3ccccc32)cc1 (stereo not drawn) | 50 µM (inactive) | 36.6 µM (inactive) | > 100 µM (inactive) | > 10 µM (inactive) | > 100 µM (inactive) | > 100 µM (inactive) |  |  | 
2 | CCC1(N=[N+]=[N-])C(=O)Nc2cc(C)ccc2C1=O (stereo not drawn) | 38.1 µM (inactive) | > 100 µM (inactive) |  | > 100 µM (inactive) | 23 µM (inactive) |  | 38 µM (inactive) | 60.3 µM (inactive) | 32.6 µM (inactive)
3 | CN(C)c1ccc(/C=C(\NC(=O)c2ccccc2)c2nc3cncnc3[nH]2)cc1 | > 100 µM (inactive) | > 100 µM (inactive) | > 100 µM (inactive) | > 100 µM (inactive) |  | > 100 µM (inactive) | > 100 µM (inactive) | > 100 µM (inactive) | 
4 | O=C1C(Cl)C(c2ccc(Cl)cc2)N1n1cnc2ccccc2c1=O (stereo not drawn) | 42.3 µM (inactive) | > 100 µM (inactive) |  | > 100 µM (inactive) | 30.3 µM (inactive) | 80.7 µM (inactive) | 72.4 µM (inactive) | > 100 µM (inactive) | 57.5 µM (inactive)
5 | C=C1C(=O)C23C(O)C1CCC2C12CO[C@]3(O)[C@@H](O)C1C(C)(C)CCC2O (stereo partly drawn) | 5.82 µM (inactive) | 16.1 µM (inactive) | 13.7 µM (inactive) | 15.3 µM (inactive) | 14.7 µM (inactive) | 2.44 µM (inactive) | 2.11 µM (inactive) | 10.7 µM (inactive) | 11.7 µM (inactive)
6 | CCOC(=O)C(NC(=O)c1ccc(/N=N/N(C)C)cc1)C(C)C (stereo not drawn) | > 100 µM (inactive) |  |  | > 100 µM (inactive) | > 100 µM (inactive) |  | > 100 µM (inactive) |  | 
7 | O=C1c2cc(CCl)sc2C(=O)c2ccsc21 | 0.163 µM (active) | 1.45 µM (inactive) |  | 0.933 µM (active) | 0.306 µM (active) | 1.73 µM (inactive) | 0.243 µM (active) | < 0.01 µM (active) | 0.264 µM (active)
8 | N=C(N)Nc1nc2cc(N)ccc2o1 |  | > 100 µM (inactive) | > 100 µM (inactive) | > 100 µM (inactive) |  |  |  | > 100 µM (inactive) | > 100 µM (inactive)
9 | Cn1cc2ccccc2c1-c1nc(N)nc(F)n1 | 85.3 µM (inactive) | > 100 µM (inactive) | > 100 µM (inactive) | > 100 µM (inactive) | > 100 µM (inactive) | > 100 µM (inactive) | > 100 µM (inactive) | 54.3 µM (inactive) | 
10 | COc1cccc2c1[C@]1(O)C(O)CCCC21 (stereo partly drawn) | > 100 µM (inactive) | > 100 µM (inactive) |  | > 100 µM (inactive) | > 100 µM (inactive) |  | > 100 µM (inactive) | > 100 µM (inactive) | 90.4 µM (inactive)
11 | O=C(CCc1nnc2s/c(=C\c3ccc4c(c3)OCO4)c(=O)n12)Nc1cc(Cl)ccc1Cl | > 100 µM (inactive) | > 100 µM (inactive) | > 100 µM (inactive) | > 100 µM (inactive) | > 55.1 µM (inactive) | > 100 µM (inactive) | > 100 µM (inactive) | > 100 µM (inactive) | > 100 µM (inactive)
12 | CCc1ccccc1NC(=O)C(=O)C(C#N)c1ccccc1Cl (stereo not drawn) | > 100 µM (inactive) | > 100 µM (inactive) | > 100 µM (inactive) | > 100 µM (inactive) |  | > 100 µM (inactive) | > 100 µM (inactive) | > 100 µM (inactive) | > 100 µM (inactive)
13 | COc1c(CC(=O)c2ccccc2)c2ccccc2n1C(C)=O | > 100 µM (inactive) | > 100 µM (inactive) | > 100 µM (inactive) | > 100 µM (inactive) | > 100 µM (inactive) | > 100 µM (inactive) | > 100 µM (inactive) | > 100 µM (inactive) | > 100 µM (inactive)
14 | CCOC(=O)c1cc(OC(=O)CC)c2c(OC)ccc(OC)c2c1 | 45 µM (inactive) | > 10 µM (inactive) |  | > 100 µM (inactive) | 35.5 µM (inactive) | > 100 µM (inactive) | 37.8 µM (inactive) | 67.6 µM (inactive) | > 100 µM (inactive)
15 | CCOc1ccc(NC(=O)C(=O)C(C(=O)c2ccc3ccccc3c2)C2OC(=O)c3ccccc32)cc1 (stereo not drawn) | 14.8 µM (inactive) | 37.6 µM (inactive) |  | 7.87 µM (inactive) | 7.35 µM (inactive) | 13.8 µM (inactive) | 6.9 µM (inactive) | 13.4 µM (inactive) | 17.7 µM (inactive)
16 | CC/C(=N/O)C(C)C(=O)CCC(=O)Nc1ccc(Cl)cc1 (stereo not drawn) | > 100 µM (inactive) | > 100 µM (inactive) |  | > 100 µM (inactive) | > 100 µM (inactive) | > 100 µM (inactive) | 54.3 µM (inactive) | > 100 µM (inactive) | > 100 µM (inactive)

Row | Compound | GI50 (DMS-114) | GI50 (KM-20L2) | GI50 (RXF 631) | GI50 (DLD-1) | GI50 (DMS-273) | GI50 (XF498) | GI50 (LXFL 529) | GI50 (M19-MEL) | GI50 (HOP-18)
17 | CNC(=O)NCCCCC(NC(=O)OCc1ccccc1)C(=O)OCc1ccccc1 (stereo not drawn) | 23.6 µM (inactive) | > 100 µM (inactive) | 23.6 µM (inactive) | 38.2 µM (inactive) | 48.8 µM (inactive) | 18.3 µM (inactive) | 32.1 µM (inactive) | 21.8 µM (inactive) | 
18 | CC(C)(C)S(=O)OC12CC3CC(CC(C3)C1)C2 (stereo not drawn) | > 100 µM (inactive) | > 100 µM (inactive) |  |  | > 100 µM (inactive) | > 100 µM (inactive) | > 100 µM (inactive) | > 100 µM (inactive) | 
19 | CC(=O)Nc1c(C)ccc2c1C(=O)c1ccccc1C2=O | 35.2 µM (inactive) |  |  | > 100 µM (inactive) | > 100 µM (inactive) |  | > 100 µM (inactive) | > 100 µM (inactive) | > 100 µM (inactive)
20 | CCCCCCCCCCCCCP(=O)(O)NCC(N)=O | 32.2 µM (inactive) | 98.6 µM (inactive) | 84.3 µM (inactive) | 43.9 µM (inactive) |  | 64.6 µM (inactive) | 54.3 µM (inactive) | 80.7 µM (inactive) | 22 µM (inactive)
21 | CNC(=O)C(C)Oc1ccc(OCC2CCCCC2)cc1 (stereo not drawn) | 59.7 µM (inactive) |  |  | > 100 µM (inactive) | > 100 µM (inactive) |  | 77.4 µM (inactive) | > 100 µM (inactive) | 16.3 µM (inactive)
22 | COc1ccc2nc(NC(=O)C(=O)C(C#N)c3ccc(CC#N)cc3)sc2c1 (stereo not drawn) |  | > 100 µM (inactive) |  | > 100 µM (inactive) | > 100 µM (inactive) |  | > 100 µM (inactive) | > 100 µM (inactive) | > 100 µM (inactive)
23 | C/N=C(/NC)N(C)c1nc(=[N+](C)C)ss1.[O-][Cl+3]([O-])([O-])[O-] |  |  |  |  | 36.2 µM (inactive) |  | > 100 µM (inactive) |  | 
24 | CS(=O)(=O)OCCN(CCOS(C)(=O)=O)c1ccc(/C=N/N=c2/nc[nH]c3nc[nH]c23)cc1 | 10.9 µM (inactive) | 21.5 µM (inactive) |  | 26.8 µM (inactive) | 14.9 µM (inactive) | 21.2 µM (inactive) |  | 20.5 µM (inactive) | 34.6 µM (inactive)
25 | NC1=NS(=O)(=O)Nc2nc(-c3cccs3)[nH]c21 |  | > 100 µM (inactive) |  | > 100 µM (inactive) | > 100 µM (inactive) |  | > 100 µM (inactive) | > 100 µM (inactive) | > 100 µM (inactive)
26 | CN1CCN(C)C1c1cccc(C2N(C)CCN2C)c1 | > 100 µM (inactive) | > 100 µM (inactive) | > 100 µM (inactive) | > 100 µM (inactive) | > 100 µM (inactive) |  | > 100 µM (inactive) | > 100 µM (inactive) | 
27 | CN1N=CSC12C(=O)N(c1ccc(Cl)cc1)C(=O)N2c1ccc(Cl)cc1 (stereo not drawn) | 1.87 µM (inactive) | 3.21 µM (inactive) |  | 4.06 µM (inactive) |  |  | 3.34 µM (inactive) | 3.37 µM (inactive) | 3.43 µM (inactive)
28 | CC(C)(C)c1cc(C(O)(C(F)(F)F)C(F)(F)F)c2c(c1)C(C(F)(F)F)(C(F)(F)F)OC(c1ccccc1)(C(C)(C)C)N2 (stereo not drawn) | 2.82 µM (inactive) | 4.92 µM (inactive) |  | 3.76 µM (inactive) | 3.61 µM (inactive) | 3.6 µM (inactive) | 3.28 µM (inactive) | 3.56 µM (inactive) | 0.515 µM (active)
29 | NC1=Nc2ccccc2Sc2ccccc21 | > 100 µM (inactive) | > 100 µM (inactive) |  | > 100 µM (inactive) | > 100 µM (inactive) | 52.1 µM (inactive) |  | > 100 µM (inactive) | 0.912 µM (active)
30 | O=C1N(Cl)C(=O)C(c2ccc(Cl)cc2)(c2ccc(Cl)cc2)N1Cl | 39.9 µM (inactive) | > 100 µM (inactive) |  | 62.2 µM (inactive) | > 100 µM (inactive) | > 100 µM (inactive) | 63 µM (inactive) | 39.7 µM (inactive) | > 100 µM (inactive)
31 | CCOCN/C(N)=N\C#N | > 100 µM (inactive) | 89.1 µM (inactive) |  | > 100 µM (inactive) | > 100 µM (inactive) | > 100 µM (inactive) | > 100 µM (inactive) | > 100 µM (inactive) | > 100 µM (inactive)
